Read-outs that look alike come from different tables or passages of the source.
Target: CB1 (mutant) (Homo sapiens, UniProt P21554)
Test: R-SAT functional receptor assay, CB1 (mutant, truncated after amino acid 417)
Assay type: cell-based
Details: R-SAT CB1; for IC50 / pIC50: receptor form (mutant or wild-type) not stated; for Emax / % Inhibition: receptor form not stated, relative to SR141716 (100%); for Emax: read-out: % Inhibition
[1] = Appendix A, read-out: pIC50 (converted)

CB1 (mutant), sequence (P21554 1-417, change not shown): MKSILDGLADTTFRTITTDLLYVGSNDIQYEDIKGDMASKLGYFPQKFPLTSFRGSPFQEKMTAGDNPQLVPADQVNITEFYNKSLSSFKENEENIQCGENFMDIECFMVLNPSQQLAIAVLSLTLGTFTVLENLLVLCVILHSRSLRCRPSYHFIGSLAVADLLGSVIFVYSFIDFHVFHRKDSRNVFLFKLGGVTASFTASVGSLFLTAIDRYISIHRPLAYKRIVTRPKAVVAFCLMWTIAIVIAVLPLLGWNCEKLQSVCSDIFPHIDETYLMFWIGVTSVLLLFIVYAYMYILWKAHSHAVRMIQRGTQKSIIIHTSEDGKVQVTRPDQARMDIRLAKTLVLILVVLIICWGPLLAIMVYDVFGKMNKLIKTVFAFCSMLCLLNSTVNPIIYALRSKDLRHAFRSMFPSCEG

CCCCNC(=O)c1ccc2c(c1)N=C(c1ccc(Cl)cn1)c1cc(F)ccc1S2 [drawing 560]
IC50 [1]: 50.1 nM | Emax (Appendix A): 100%

CCCNC(=O)c1ccc2c(c1)N=C(c1ccc(OC)cc1)c1ccccc1S2 [drawing 915]
IC50 [1]: 15.8 nM | Emax (Appendix A): 112%

O=C(NCCCc1ccccc1)c1ccc2c(c1)N=C(c1ccc(Cl)cc1)c1ccccc1S2 [drawing 645]
Emax (Appendix A): 106% | IC50 (pIC50, Appendix A): 5.01 nM

O=C(NCCc1ccc(Cl)cc1)c1ccc2c(c1)N=C(N1CCC(F)CC1)c1ccccc1S2 [drawing 1119]
IC50 [1]: 39.8 nM | Emax (Appendix A): 103%

CC(C)CNC(=O)c1ccc2c(c1)N=C(c1cccc(Cl)c1)c1ccccc1S2 [drawing 565]
% Inhibition (Appendix A): 105%

CCOC(=O)N1CCC(NC(=O)c2ccc3c(c2)N=C(CC(C)C)c2ccccc2S3)CC1
IC50 [1]: 398 nM | Emax (Appendix A): 89%

CC(C)CNC(=O)c1ccc2c(c1)N=C(c1ccc(Cl)cc1)c1ccc(Cl)cc1S2 [drawing 1113]
IC50 [1]: 39.8 nM | Emax (Appendix A): 106%

Cc1ccsc1C1=Nc2cc(C(=O)NN3CCCCC3)ccc2Sc2ccccc21 [drawing 1045]
IC50 [1]: 31.6 nM | Emax (Appendix A): 100%

O=C(NCc1ccccn1)c1ccc2c(c1)N=C(c1ccccn1)c1ccccc1S2
IC50 [1]: 316 nM | Emax (Appendix A): 81%

O=C(NCc1cccc(Cl)c1)c1ccc2c(c1)N=C(c1ccccc1F)c1ccccc1S2 [drawing 1083]
IC50 [1]: 31.6 nM | Emax (Appendix A): 99%

CCCNC(=O)c1ccc2c(c1)N=C(c1ccc(Cl)cc1F)c1ccccc1S2 [drawing 851]
IC50 [1]: 12.6 nM | Emax (Appendix A): 101%

O=C(NCc1ccccc1Cl)c1ccc2c(c1)N=C(c1ccccc1)c1ccccc1S2 [drawing 594]
IC50 [1]: 50.1 nM | Emax (Appendix A): 86%

CC(C)NC(=O)c1ccc2c(c1)N=C(c1ccc(Cl)s1)c1ccccc1S2 [drawing 550]
IC50 [1]: 39.8 nM | Emax (Appendix A): 78%

CCCC1=Nc2cc(C(=O)NCCCN3CCN(c4ccc(OC)cc4)CC3)ccc2Sc2ccccc21
IC50 [1]: 2510 nM | Emax (Appendix A): 79%

O=C(NCc1cccs1)c1ccc2c(c1)N=C(c1ccccc1F)c1ccccc1S2 [drawing 795]
IC50 [1]: 10 nM | Emax (Appendix A): 114%

O=C(NCc1ccccn1)c1ccc2c(c1)N=C(N1CCCCC1)c1ccccc1S2
IC50 [1]: 158 nM | Emax (Appendix A): 78%

CC(CNC(=O)c1ccc2c(c1)N=C(N1CCCCC1)c1cc(F)ccc1S2)c1ccccc1 (centres unmarked) [drawing 1171]
IC50 [1]: 39.8 nM | Emax (Appendix A): 102%

CCCCN(C)C(=O)c1ccc2c(c1)N=C(c1ccc(F)cc1)c1ccccc1S2
IC50 [1]: 31.6 nM | Emax (Appendix A): 107%

CCCCNC(=O)c1ccc2c(c1)N=C(c1ccc(Cl)s1)c1cc(Cl)ccc1S2 [drawing 995]
IC50 [1]: 25.1 nM | Emax (Appendix A): 107%

O=C(NCCC(F)(F)F)c1ccc2c(c1)N=C(c1ccsc1)c1ccccc1S2 [drawing 607]
Emax (Appendix A): 97% | IC50 (pIC50, Appendix A): 3.98 nM

COc1ccc(C2=Nc3cc(C(=O)NNC(=O)Cc4ccccc4)ccc3Sc3ccccc32)cc1
IC50 [1]: 50.1 nM | Emax (Appendix A): 77%

O=C(NCCCC(F)(F)F)c1ccc2c(c1)N=C(c1cccc(F)c1)c1ccccc1S2 [drawing 547]
IC50 [1]: 1 nM | Emax (Appendix A): 100%

O=C(NN1CCCCC1)c1ccc2c(c1)N=C(c1ccccc1)c1ccccc1O2
IC50 [1]: 158 nM | Emax (Appendix A): 57%

CCCC1=Nc2cc(C(=O)NCCCN3CCN(c4cc(C)ccc4C)CC3)ccc2Sc2ccccc21
IC50 [1]: 316 nM | Emax (Appendix A): 126%

CCCCN(C)C(=O)c1ccc2c(c1)N=C(c1ccc(Cl)s1)c1ccccc1S2
IC50 [1]: 100 nM | Emax (Appendix A): 87%

CON(C)C(=O)c1ccc2c(c1)N=C(c1ccc(Cl)c(Cl)c1)c1ccccc1S2
Emax (Appendix A): 0%

CC(C)CNC(=O)c1ccc2c(c1)N=C(c1ccc(Cl)cc1Cl)c1ccccc1S2
IC50 [1]: 79.4 nM | Emax (Appendix A): 87%

CONC(=O)c1ccc2c(c1)N=C(c1ccc(Cl)s1)c1ccccc1S2
IC50 [1]: 398 nM | Emax (Appendix A): 66%

CCCC1=Nc2cc(C(=O)N3CCN(C(=O)OCC)CC3)ccc2Sc2ccccc21
IC50 [1]: 1000 nM | Emax (Appendix A): 77%

CCCCNS(=O)(=O)c1ccc2c(c1)N=C(c1ccc(Cl)cc1)c1ccccc1S2 [drawing 875]
IC50 [1]: 15.8 nM | Emax (Appendix A): 106%

O=C(NCCc1ccncc1)c1ccc2c(c1)N=C(c1cccc(F)c1)c1ccccc1S2 [drawing 1097]
Emax (Appendix A): 106% | IC50 (pIC50, Appendix A): 31.6 nM

CCCC1=Nc2cc(C(=O)NCc3ccccc3OC)ccc2Sc2ccccc21
Emax (Appendix A): 91% | IC50 (pIC50, Appendix A): 63.1 nM

O=C(NN1CCCCC1)c1ccc2c(c1)N=C(N1CCCCC1)c1ccccc1S2 [drawing 610]
IC50 [1]: 50.1 nM | Emax (Appendix A): 104%

O=C(NN1CCCCC1)c1ccc2c(c1)N=C(c1ccc(Cl)c(Cl)c1)c1ccccc1S2 [drawing 989]
IC50 [1]: 25.1 nM | Emax (Appendix A): 105%

COCCNC(=O)c1ccc2c(c1)N=C(c1ncccc1C)c1ccccc1S2
pIC50 (Appendix A): 1.0 | Emax (Appendix A): -6%

O=C(NN1CCCCCC1)c1ccc2c(c1)N=C(c1ccc(Cl)cc1)c1ccccc1S2 [drawing 1041]
IC50 [1]: 31.6 nM | % Inhibition (Appendix A): 96%

CC(CNC(=O)c1ccc2c(c1)N=C(C1CCCCC1)c1ccccc1S2)c1ccccc1 (centres unmarked) [drawing 783]
IC50 [1]: 10 nM | Emax (Appendix A): 100%

O=C(NN1CCCCCC1)c1ccc2c(c1)N=C(c1ccc(F)cc1)c1ccccc1S2 [drawing 1009]
IC50 [1]: 25.1 nM | Emax (Appendix A): 92%

CCCC1=NC2=C(CCC(C(=O)NCCN(CC)CCNc3cc(Cl)ccc3C)=C2)Sc2ccccc21
IC50 [1]: 158 nM | Emax (Appendix A): 113%

O=C(NCc1ccc(F)cc1)c1ccc2c(c1)N=C(c1ccc(Cl)cc1)c1ccccc1S2(=O)=O [drawing 961]
IC50 [1]: 20 nM | Emax (Appendix A): 108%

O=C(NCc1cccc(Cl)c1)c1ccc2c(c1)N=C(c1ccc(F)cc1)c1ccccc1S2 [drawing 747]
pIC50 (Appendix A): 8.1 | % Inhibition (Appendix A): 106%

Cc1ccsc1C1=Nc2cc(C(=O)NC3CCCCC3)ccc2Sc2ccccc21 [drawing 572]
IC50 [1]: 50.1 nM | Emax (Appendix A): 88%

CONC(=O)c1ccc2c(c1)N=C(c1ncccc1C)c1ccccc1S2
pIC50 (Appendix A): 1.0 | Emax (Appendix A): 8%

O=C(NCc1ccncc1)c1ccc2c(c1)N=C(c1ccc(F)cc1)c1ccccc1S2 [drawing 716]
IC50 [1]: 79.4 nM | Emax (Appendix A): 101%

CCCCNC(=O)c1ccc2c(c1)N=C(c1ccc(Cl)cc1)c1ccc(Cl)cc1S2 [drawing 766]
Emax (Appendix A): 90% | IC50 (pIC50, Appendix A): 100 nM

O=C(NC1CCCC1)c1ccc2c(c1)N=C(c1ccc(Cl)cc1)c1ccccc1S2 [drawing 782]
IC50 [1]: 100 nM | Emax (Appendix A): 105%

CCCC1=Nc2cc(C(=O)N3CCc4ccccc4C3)ccc2Sc2ccccc21
IC50 [1]: 631 nM | Emax (Appendix A): 95%

CCCCNC(=O)c1ccc2c(c1)N=C(c1ccc(Cl)s1)c1ccc(Cl)cc1S2 [drawing 1109]
IC50 [1]: 39.8 nM | Emax (Appendix A): 104%

O=C(NNCc1ccccc1)c1ccc2c(c1)N=C(c1ccc(Cl)cc1)c1ccccc1S2
IC50 [1]: 200 nM | Emax (Appendix A): 66%

O=C(NC1CCC(F)(F)CC1)c1ccc2c(c1)N=C(c1cccc(Cl)c1)c1ccccc1S2 [drawing 699]
Emax (Appendix A): 91% | IC50 (pIC50, Appendix A): 7.94 nM

O=C(NCc1ccco1)c1ccc2c(c1)N=C(c1ccccc1Cl)c1ccccc1S2
Emax (Appendix A): 95%

O=C(NCCc1ccccc1)c1ccc2c(c1)N=C(c1ccc(Cl)cc1)c1ccccc1S2 [drawing 743]
IC50 [1]: 7.94 nM | Emax (Appendix A): 110%

CCCNC(=O)c1ccc2c(c1)N=C(c1ccccc1Cl)c1ccccc1S2
IC50 [1]: 79.4 nM | Emax (Appendix A): 78%

COc1ccc(C2=Nc3cc(C(=O)NCc4ccccn4)ccc3Sc3ccccc32)cc1
IC50 [1]: 63.1 nM | Emax (Appendix A): 93%

CC(NC(=O)c1ccc2c(c1)N=C(c1ccc(Cl)cc1)c1ccccc1S2)c1ccccc1 (centres unmarked) [drawing 1107]
IC50 [1]: 39.8 nM | Emax (Appendix A): 88%

COCCNC(=O)c1ccc2c(c1)N=C(c1ccc(Cl)cc1Cl)c1ccccc1S2
IC50 [1]: 316 nM | Emax (Appendix A): 69%

O=C(NCCc1ccncc1)c1ccc2c(c1)N=C(c1ccc(Cl)c(Cl)c1)c1ccccc1S2 [drawing 1095]
IC50 [1]: 31.6 nM | Emax (Appendix A): 119%

Cc1ccsc1C1=Nc2cc(C(=O)NCc3ccco3)ccc2Sc2ccccc21 [drawing 855]
IC50 [1]: 12.6 nM | Emax (Appendix A): 100%

O=C(NN1CCCCCC1)c1ccc2c(c1)N=C(c1ccc(Cl)cc1F)c1ccccc1S2 [drawing 867]
IC50 [1]: 15.8 nM | Emax (Appendix A): 102%

O=C(NCCc1ccccn1)c1ccc2c(c1)N=C(c1cccc(F)c1)c1ccccc1S2
IC50 [1]: 50.1 nM | Emax (Appendix A): 91%

COCCNC(=O)c1ccc2c(c1)N=C(c1ccc(Cl)cc1F)c1ccccc1S2
IC50 [1]: 63.1 nM | Emax (Appendix A): 104%

CCCNC(=O)c1ccc2c(c1)N=C(c1ccc(Br)cc1)c1ccccc1S2 [drawing 1055]
IC50 [1]: 31.6 nM | Emax (Appendix A): 92%

O=C(NCc1ccc(F)cc1)c1ccc2c(c1)N=C(c1ccccc1F)c1ccccc1S2 [drawing 925]
IC50 [1]: 15.8 nM | Emax (Appendix A): 102%

O=C(c1ccc2c(c1)N=C(c1ccc(F)cc1)c1ccccc1S2)N1CCCCC1 [drawing 1163]
Emax (Appendix A): 90% | IC50 (pIC50, Appendix A): 39.8 nM

CCOCCNC(=O)c1ccc2c(c1)N=C(NCc1ccc(Cl)cc1)c1ccccc1S2
Emax (Appendix A): 1%

O=C(NN1CCCCC1)c1ccc2c(c1)N=C(c1ccc(Cl)cc1)c1ccccc1S2 [drawing 863]
% Inhibition (Appendix A): 103%

CC(CNC(=O)c1ccc2c(c1)N=C(c1ccc(F)cc1)c1ccccc1S2)c1ccccc1 (centres unmarked) [drawing 639]
Emax (Appendix A): 98% | IC50 (pIC50, Appendix A): 5.01 nM

O=C(NN1CCCC1)c1ccc2c(c1)N=C(c1ccc(F)cc1)c1ccccc1S2
IC50 [1]: 158 nM | Emax (Appendix A): 92%

CCCCCC1=Nc2cc(C(=O)N3CCN(c4ccc(C)cc4C)CC3)ccc2Sc2ccccc21
IC50 [1]: 200 nM | Emax (Appendix A): 107%

Cc1cccnc1C1=Nc2cc(C(=O)NCC(C)C)ccc2Sc2ccccc21
Emax (Appendix A): 87%

CC(C)CNC(=O)c1ccc2c(c1)N=C(c1ccccn1)c1ccccc1S2 [drawing 1021]
IC50 [1]: 25.1 nM | Emax (Appendix A): 96%

CC(C)CNC(=O)c1ccc2c(c1)N=C(c1ccc(Cl)cn1)c1ccc(Cl)cc1S2 [drawing 1172]
Emax (Appendix A): 27%
